Literature values in patent US10398729B2, “Method for treating Alzheimer's disease” (priority 2012, dated 2019).

Tests used:
[1] = tested on: patients with mild-to-moderate AD
[2] = tested on: primary human fibroblast cells (IMR-90); settings: IMR-90 cells in vitro
hepatoma cells SMMC-7721 = settings: 20.0 μmol/L chromic chloride
[3] = tested on: elderly adults with early memory decline
brain functions = settings: prolonged intranasal administration

C=C1/C(=C\C=C2/CCC[C@]3(C)[C@@H]([C@H](C)CCCC(C)(C)O)CC[C@@H]23)C[C@@H](O)C[C@@H]1O [1,25D3, 1alpha,25-dihydroxyvitamin D3]
apoptosis (macrophages): protecting against apoptosis
Abeta phagocytosis and clearance (macrophages; studied in combination with curcuminoids): strongly stimulated

CCCCCCCC(=O)OCC(COC(=O)CCCCCCC)OC(=O)CCCCCCC [AC-1202]
memory and cognition [1]: improves memory and cognition

CC(C)(C)NO [N-tert-butylhydroxylamine (NtBHA), N-tert-butylhydroxylamine]
senescence-related and H2O2-stimulated iron accumulation [2]: attenuated

[Cl][Cr]([Cl])[Cl] [chromic chloride]
telomere lengths (hepatoma cells SMMC-7721): remarkably extended the telomere lengths

chromium picolinate
cognitive performance and brain function [3]: can improve cognitive performance and brain function

insulin
memory and mood (brain functions): improving memory and mood
systemic side effects (brain functions): absence of systemic side effects
